Among the data in patent publication US20260083708A1, “IL-17 MODULATORS AND USES THEREOF” (NNOCARE PHARMA INC., priority 2024, published 2026) are IC50 values, retold here.

The test system of assay [1] is IL-17AF-induced IL-17 signaling pathway. As to the kind of experiment: Inhibition of IL-17AF-induced IL-17 signaling pathway. The class given is cell-based. As to conditions: Homo sapiens; IL-17AF used instead of IL-17AA; read-out: IC50 for Inhibiting IL-AF Signaling. The method in brief: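 HEK293-derived HEK-Blue IL-17 cells (IL-17RA/RC, ACT1, NF-κB/AP-1-driven SEAP) preincubated 1 hour at 37° C with serially diluted compound from 10 μM, then stimulated with IL-17AF for 20 hours. SEAP read colorimetrically at 620 nm; IC50 from 4-parameter fit of % inhibition.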

The target of the next assay is T1, IL-17AA and IL-17RA (Homo sapiens, UniProt Q16552).
T1 construct: purchased Sino Biological 12047-H07B (IL-17AA); 10895-H02H (IL-17RA)
T1 sequence (Q16552 24-155): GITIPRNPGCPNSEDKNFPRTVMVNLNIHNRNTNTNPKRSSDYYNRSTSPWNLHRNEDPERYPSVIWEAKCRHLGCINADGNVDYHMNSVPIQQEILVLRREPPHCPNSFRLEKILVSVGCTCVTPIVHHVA
In words: Competitive inhibition of human IL-17AA and IL-17RA binding (HTRF). As to conditions: recombinant IL-17AA (His-tag) and IL-17RA (hFc-tag); read-out: IC50 for Inhibiting IL-AA/IL-RA Binding. The method in brief:
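His-IL-17AA (1 nM) premixed 1 h with anti-His-Tb (0.4 nM), and Fc-IL-17RA (1 nM) with anti-IgG-d2 (1 μg/mL); these are pre-mix levels. Compounds, diluted from 10 μM, preincubated 2 h RT with IL-17AA mix; IL-17RA mix then added, 20 min. 665/615 ratio vs no-compound and no-IL-17AA controls; IC50 by 4-parameter fit.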

Assay [2] has as its system IL-17AA-induced IL-17 signaling pathway. In words: Inhibition of IL-17AA-induced IL-17 signaling pathway in HEK-Blue IL-17 reporter cells (SEAP). Format: cell-based. As to conditions: Homo sapiens; HEK-Blue IL-17 cells, IL-17AA 2.5 ng/mL, 20 hours; read-out: IC50 for Inhibiting IL-AA Signaling. The method in brief:
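HEK-Blue IL-17 cells (HEK293 expressing human IL-17RA/RC, ACT1 and NF-κB/AP-1-driven SEAP), 10,000/well, pre-incubated with compound (serial dilution from 10 μM) for 1 h at 37 °C, then stimulated with IL-17AA at 2.5 ng/mL final for 20 h. SEAP in supernatant read with Quanti-Blue at 620 nm; IC50 by 4-parameter fit.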

As for `Cc1nonc1C(=O)N[C@H](C(=O)Nc1ccc([C@H](C)[C@@H](NC(=O)COC(F)F)c2ncnn2CC2CC2)cc1F)C(C1CC1)C1CC1` [Compound 65, N-((S)-1,1-dicyclopropyl-3-((4-((1R,2S)-1-(1-(cyclopropylmethyl)-1H-1,2,4-triazol-5-yl)-1-(2-(difluoromethoxy)acetamido)propan-2-yl)-2-fluorophenyl)amino)-3-oxopropan-2-yl)-4-methyl-1,2,5-oxadiazole-3-carboxamide], the IC50 in assay [1] is 3.6 nM; at IL-17AA and IL-17RA, 0.9 nM; in assay [2], 2.8 nM.

Regarding `CC(=O)N[C@@H](c1ncnn1CC1CC1)[C@@H](C)c1ccc(NC(=O)[C@@H](NC(=O)c2nonc2C)C(C2CC2)C2CC2)c(F)c1` [Compound 67, N-((S)-1-((4-((1R,2S)-1-acetamido-1-(1-(cyclopropylmethyl)-1H-1,2,4-triazol-5-yl)propan-2-yl)-2-fluorophenyl)amino)-3,3-dicyclopropyl-1-oxopropan-2-yl)-4-methyl-1,2,5-oxadiazole-3-carboxamide], the IC50 in assay [1] was determined as 13 nM; on IL-17AA and IL-17RA, 1.1 nM; in assay [2], 8 nM.

On to `[2H]C([2H])([2H])OCC(=O)N[C@@H](c1ncnn1CC1CC1)[C@@H](C)c1ccc(NC(=O)[C@@H](NC(=O)c2ccnn2CC)C(C2CC2)C2CC2)c(F)c1` [Compound 68, N-((S)-1,1-dicyclopropyl-3-((4-((1R,2S)-1-(1-(cyclopropylmethyl)-1H-1,2,4-triazol-5-yl)-1-(2-(methoxy-d3)acetamido)propan-2-yl)-2-fluorophenyl)amino)-3-oxopropan-2-yl)-1-ethyl-1H-pyrazole-5-carboxamide], for which the IC50 was determined as 6.4 nM in assay [1]; 4.5 nM at IL-17AA and IL-17RA; 5.6 nM in assay [2].

Turning to `[2H]C([2H])([2H])n1nccc1C(=O)N[C@H](C(=O)Nc1ccc([C@H](C)[C@@H](NC(=O)CO)c2ncnn2CC2CC2)cc1F)C(C1CC1)C1CC1` [Compound 69, N-((S)-1,1-dicyclopropyl-3-((4-((1R,2S)-1-(1-(cyclopropylmethyl)-1H-1,2,4-triazol-5-yl)-1-(2-hydroxyacetamido)propan-2-yl)-2-fluorophenyl)amino)-3-oxopropan-2-yl)-1-(methyl-d3)-1H-pyrazole-5-carboxamide], the IC50 came out at 74 nM in assay [1]; 13 nM at IL-17AA and IL-17RA; 42 nM in assay [2].

On to `Cc1nonc1C(=O)N[C@H](C(=O)Nc1ccc([C@H](C)[C@@H](NC(=O)CC#N)c2ncnn2CC2CC2)cc1F)C(C1CC1)C1CC1` [Compound 70, N-((S)-1-((4-((1R,2S)-1-(2-cyanoacetamido)-1-(1-(cyclopropylmethyl)-1H-1,2,4-triazol-5-yl)propan-2-yl)-2-fluorophenyl)amino)-3,3-dicyclopropyl-1-oxopropan-2-yl)-4-methyl-1,2,5-oxadiazole-3-carboxamide], for which the IC50 in assay [1] was 7.3 nM; at IL-17AA and IL-17RA, 3.4 nM; in assay [2], 7.5 nM.

On to `[2H]C([2H])([2H])OCC(=O)N[C@@H](c1ncnn1CC1CC1)[C@@H](C)c1ccc(NC(=O)[C@@H](NC(=O)c2ccnn2C([2H])([2H])[2H])C(C2CC2)C2CC2)c(F)c1` [Compound 71, N-((S)-1,1-dicyclopropyl-3-((4-((1R,2S)-1-(1-(cyclopropylmethyl)-1H-1,2,4-triazol-5-yl)-1-(2-(methoxy-d3)acetamido)propan-2-yl)-2-fluorophenyl)amino)-3-oxopropan-2-yl)-1-(methyl-d3)-1H-pyrazole-5-carboxamide], for which the IC50 was 13 nM in assay [1]; 5.3 nM at IL-17AA and IL-17RA; 9.6 nM in assay [2].

Regarding `CCC(=O)N[C@@H](c1ncnn1CC1CC1)[C@@H](C)c1ccc(NC(=O)[C@@H](NC(=O)c2ccnn2CC)C(C2CC2)C2CC2)c(F)c1` [Compound 72, N-((S)-1,1-dicyclopropyl-3-((4-((1R,2S)-1-(1-(cyclopropylmethyl)-1H-1,2,4-triazol-5-yl)-1-propionamidopropan-2-yl)-2-fluorophenyl)amino)-3-oxopropan-2-yl)-1-ethyl-1H-pyrazole-5-carboxamide], the IC50 turned out to be 8.5 nM in assay [1]; 1 nM on IL-17AA and IL-17RA; 1.9 nM in assay [2].

For the molecule `CCC(=O)N[C@@H](c1ncnn1CC1CC1)[C@@H](C)c1ccc(NC(=O)[C@@H](NC(=O)c2ccnn2C2CN(C)C2)C(C2CC2)C2CC2)c(F)c1` [Compound 73, N—((S)-1,1-dicyclopropyl-3-((4-((1R,2S)-1-(1-(cyclopropylmethyl)-1H-1,2,4-triazol-5-yl)-1-propionamidopropan-2-yl)-2-fluorophenyl)amino)-3-oxopropan-2-yl)-1-(1-methylazetidin-3-yl)-1H-pyrazole-5-carboxamide], the IC50 stood at 180 nM in assay [1]; 174 nM on IL-17AA and IL-17RA; 153 nM in assay [2].

In the case of `CCC(=O)N[C@@H](c1ncnn1CC1CC1)[C@@H](C)c1ccc(NC(=O)[C@@H](NC(=O)c2nsnc2C)C(C2CC2)C2CC2)c(F)c1` [Compound 74, N-((S)-1,1-dicyclopropyl-3-((4-((1R,2S)-1-(1-(cyclopropylmethyl)-1H-1,2,4-triazol-5-yl)-1-propionamidopropan-2-yl)-2-fluorophenyl)amino)-3-oxopropan-2-yl)-4-methyl-1,2,5-thiadiazole-3-carboxamide], the IC50 amounted to 61 nM in assay [1]; 5.4 nM at IL-17AA and IL-17RA; 31 nM in assay [2].

Regarding `[2H]C([2H])([2H])C([2H])([2H])C(=O)N[C@@H](c1ncnn1CC1CC1)[C@@H](C)c1ccc(NC(=O)[C@@H](NC(=O)c2nonc2C)C(C2CC2)C2CC2)c(F)c1` [Compound 75, N-((S)-1,1-dicyclopropyl-3-((4-((1R,2S)-1-(1-(cyclopropylmethyl)-1H-1,2,4-triazol-5-yl)-1-(propanamido-2,2,3,3,3-d5)propan-2-yl)-2-fluorophenyl)amino)-3-oxopropan-2-yl)-4-methyl-1,2,5-oxadiazole-3-carboxamide], the IC50 worked out at 8.1 nM in assay [1]; 1.1 nM at IL-17AA and IL-17RA; 6.1 nM in assay [2].

Take `CCC(=O)N[C@@H](c1ncnn1CC1CC1)[C@@H](C)c1ccc(NC(=O)[C@@H](NC(=O)c2ccnn2CC)C2CCC(=C(F)F)CC2)c(F)c1` (stereo partly drawn) [Compound 77, N-((S)-2-((4-((1R,2S)-1-(1-(cyclopropylmethyl)-1H-1,2,4-triazol-5-yl)-1-propionamidopropan-2-yl)-2-fluorophenyl)amino)-1-(4-(difluoromethylene)cyclohexyl)-2-oxoethyl)-1-ethyl-1H-pyrazole-5-carboxamide]: the IC50 amounted to 32 nM in assay [1]; 5.6 nM at IL-17AA and IL-17RA; 11 nM in assay [2].

`CCC(=O)N[C@@H](c1ncnn1CC1CC1)[C@@H](C)c1ccc(NC(=O)[C@@H](NC(=O)c2ccnn2CC)C2CCC3(CC2)CC(F)(F)C3)c(F)c1` [Compound 78, N-((S)-2-((4-((1R,2S)-1-(1-(cyclopropylmethyl)-1H-1,2,4-triazol-5-yl)-1-propionamidopropan-2-yl)-2-fluorophenyl)amino)-1-(2,2-difluorospiro[3.5]nonan-7-yl)-2-oxoethyl)-1-ethyl-1H-pyrazole-5-carboxamide]: the IC50 in assay [1] turned out to be 517 nM; at IL-17AA and IL-17RA it was 48 nM; in assay [2], 376 nM.

`CCC(=O)N[C@@H](c1ncnn1CCNC1CC1)[C@@H](C)c1ccc(NC(=O)[C@@H](NC(=O)c2nonc2C)C(C2CC2)C2CC2)c(F)c1` [Compound 79, N-((S)-1,1-dicyclopropyl-3-((4-((1R,2S)-1-(1-(2-(cyclopropylamino)ethyl)-1H-1,2,4-triazol-5-yl)-1-propionamidopropan-2-yl)-2-fluorophenyl)amino)-3-oxopropan-2-yl)-4-methyl-1,2,5-oxadiazole-3-carboxamide]: the IC50 in assay [1] amounted to 36 nM; at IL-17AA and IL-17RA, 6 nM; in assay [2] it was 19 nM.

Take `CCC(=O)N[C@@H](c1ncn(CCNC2CC2)n1)[C@@H](C)c1ccc(NC(=O)[C@@H](NC(=O)c2nonc2C)C(C2CC2)C2CC2)c(F)c1` [Compound 80, N—((S)-1,1-dicyclopropyl-3-((4-((1R,2S)-1-(1-(2-(cyclopropylamino)ethyl)-1H-1,2,4-triazol-3-yl)-1-propionamidopropan-2-yl)-2-fluorophenyl)amino)-3-oxopropan-2-yl)-4-methyl-1,2,5-oxadiazole-3-carboxamide]: the IC50 in assay [1] is 49 nM; on IL-17AA and IL-17RA, 18 nM; in assay [2] it was 32 nM.
